The molecules below were run on P. falciparum (NF54 or 3D7 strain) (assay: Assay for P. falciparum proliferation in infected human blood cells (SYBR Green)). Conditions: Plasmodium falciparum, Erythrocyte, 72 h, NF54 or 3D7 infected human erythrocytes, 72 hours; read-out: EC50 (nM), inhibitory efficacy in delaying P. falciparum proliferation in infected human blood cells.
Assay type: cell-based, Plasmodium falciparum
Procedure, shortened: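 NF54 or 3D7 parasites in O+ human erythrocytes at 2.5% hematocrit and 0.3% parasitemia final, exposed to compounds 72 h at 37 °C under 93% N2/4% CO2/3% O2.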

EC50 [nM]	SMILES
338	N#Cc1ccc(N(CCC2CCOCC2)C(=O)c2cn3c(-c4ccc(C(F)(F)F)cc4)cnc3cn2)cc1 [Compound 133, N-(4-cyanophenyl)-N-[2-(oxan-4-yl)ethyl]-3-[4-(trifluoromethyl)phenyl]imidazo[1,2-a]pyrazine-6-carboxamide]
> 10000	CN(C(=O)c1cn2c(-c3cc4ccccc4[nH]3)cnc2cn1)c1ccc(Cl)nc1 [Compound 387, N-(6-chloropyridin-3-yl)-3-(1H-indol-2-yl)-N-methylimidazo[1,2-a]pyrazine-6-carboxamide]
1370	Cc1ccc(-c2cnc3cnc(C(=O)N(C)c4ccc(Cl)cc4Cl)cn23)cc1 [Compound 61, N-(2,4-dichlorophenyl)-N-methyl-3-(4-methylphenyl)imidazo[1,2-a]pyrazine-6-carboxamide]
5490	CN(C)c1ccc(-c2cnc3cnc(C(=O)N(C)c4ccc(Cl)nc4)cn23)cn1 [Compound 357, N-(6-chloropyridin-3-yl)-3-[6-(dimethylamino)pyridin-3-yl]-N-methylimidazo[1,2-a]pyrazine-6-carboxamide]
387	CN(C(=O)c1cn2c(-c3ccc4c(ccn4C)c3)cnc2cn1)c1ccc(C#N)cc1 [Compound 123, N-(4-cyanophenyl)-N-methyl-3-(1-methyl-1H-indol-5-yl)imidazo[1,2-a]pyrazine-6-carboxamide]
6840	CNc1ccc(-c2cnc3cnc(C(=O)N(C)c4ccc(Cl)nc4)cn23)cc1 [Compound 398, N-(6-chloropyridin-3-yl)-N-methyl-3-[4-(methylamino)phenyl]imidazo[1,2-a]pyrazine-6-carboxamide]
624	CN(C(=O)c1cn2c(-c3ccc(C(F)(F)F)cc3)cnc2cn1)c1ccccc1Cl [Compound 73, N-(2-chlorophenyl)-N-methyl-3-[4-(trifluoromethyl)phenyl]imidazo[1,2-a]pyrazine-6-carboxamide]
81	Cc1ccc(-c2cnc3cnc(C(=O)N(C)c4ccc(F)c(F)c4)cn23)cc1 [Compound 135, N-(3,4-difluorophenyl)-N-methyl-3-(4-methylphenyl)imidazo[1,2-a]pyrazine-6-carboxamide]
1050	CN(C(=O)c1cn2c(-c3ccc(C(F)F)cc3)cnc2cn1)c1ccc(C#N)cn1 [Compound 95, N-(5-cyanopyridin-2-yl)-3-[4-(difluoromethyl)phenyl]-N-methylimidazo[1,2-a]pyrazine-6-carboxamide]
135	CN(C(=O)c1cn2c(-c3ccc(C(C)(C)C)cc3)cnc2cn1)c1ccc(C#N)cc1 [Compound 118, 3-(4-tert-butylphenyl)-N-(4-cyanophenyl)-N-methylimidazo[1,2-a]pyrazine-6-carboxamide]
3590	Cc1cc(C(F)(F)F)ccc1-c1cnc2cnc(C(=O)N(C)c3ccc(C#N)cc3)cn12 [Compound 150, N-(4-cyanophenyl)-N-methyl-3-[2-methyl-4-(trifluoromethyl)phenyl]imidazo[1,2-a]pyrazine-6-carboxamide]
468	CN(C(=O)c1cn2c(-c3ccc(C(F)(F)F)cc3F)cnc2cn1)c1ccc(Cl)nc1 [Compound 275, N-(6-chloropyridin-3-yl)-3-[2-fluoro-4-(trifluoromethyl)phenyl]-N-methylimidazo[1,2-a]pyrazine-6-carboxamide]
368	CN(C)c1ccc(-c2cnc3cnc(C(=O)N(C)c4ccc(F)c(F)c4)cn23)cc1 [Compound 159, N-(3,4-difluorophenyl)-3-[4-(dimethylamino)phenyl]-N-methylimidazo[1,2-a]pyrazine-6-carboxamide]
188	COc1ccccc1N(C)C(=O)c1cn2c(-c3ccc(C(F)(F)F)cc3)cnc2cn1 [Compound 110, N-(2-methoxyphenyl)-N-methyl-3-[4-(trifluoromethyl)phenyl]imidazo[1,2-a]pyrazine-6-carboxamide]
2650	Cc1cccnc1N(C)C(=O)c1cn2c(-c3ccc(C(F)(F)F)cc3)cnc2cn1 [Compound 390, N-methyl-N-(3-methylpyridin-2-yl)-3-[4-(trifluoromethyl)phenyl]imidazo[1,2-a]pyrazine-6-carboxamide]
37	CN(C(=O)c1cn2c(-c3ccc(C(C)(F)F)cc3)cnc2cn1)c1ccc(C#N)cc1 [Compound 75, N-(4-cyanophenyl)-3-[4-(1,1-difluoroethyl)phenyl]-N-methylimidazo[1,2-a]pyrazine-6-carboxamide]
8190	CN(C(=O)c1cn2c(-c3ccc(C#N)cc3)cnc2cn1)c1ccc(C#N)cc1 [Compound 377, N,3-bis(4-cyanophenyl)-N-methylimidazo[1,2-a]pyrazine-6-carboxamide]
> 10000	CN(C(=O)c1cn2c(-c3ccc4nonc4c3)cnc2cn1)c1ccc(C#N)cc1 [Compound 202, 3-(2,1,3-benzoxadiazol-5-yl)-N-(4-cyanophenyl)-N-methylimidazo[1,2-a]pyrazine-6-carboxamide]

EC50 [nM]	SMILES
293	CN(C(=O)c1cn2c(-c3ccc(C(F)(F)F)cc3)cnc2cn1)c1cc(F)ccn1 [Compound 490, N-(4-fluoropyridin-2-yl)-N-methyl-3-[4-(trifluoromethyl)phenyl]imidazo[1,2-a]pyrazine-6-carboxamide]
258	Cc1ccc(-c2cnc3cnc(C(=O)N(C)c4ccc(Cl)nc4)cn23)cc1 [Compound 80, -(6-chloropyridin-3-yl)-N-methyl-3-(4-methylphenyl)imidazo[1,2-a]pyrazine-6-carboxamide]
> 10000	COC[C@@H]1CCCN1c1ccc(N(C)C(=O)c2cn3c(-c4ccc(C(F)(F)F)cc4)cnc3cn2)cn1 [Compound 359, N-{6-[(2S)-2-(methoxymethyl)pyrrolidin-1-yl]pyridin-3-yl}-N-methyl-3-[4-(trifluoromethyl)phenyl]imidazo[1,2-a]pyrazine-6-carboxamide]
35	CN(Cc1cn2c(-c3ccc(OC(F)F)cc3)cnc2cn1)c1ccc(C#N)cc1 [Compound 479, 4-[({3-[4-(difluoromethoxy)phenyl]imidazo[1,2-a]pyrazin-6-yl}methyl)(methyl)amino]benzonitrile]
4610	CN(C(=O)c1cn2c(-c3ccc(C4NC(=O)NC4=O)cc3)cnc2cn1)c1ccc(C#N)cc1 (stereo not drawn) [Compound 165, N-(4-cyanophenyl)-3-[4-(2,5-dioxoimidazolidin-4-yl)phenyl]-N-methylimidazo[1,2-a]pyrazine-6-carboxamide]
87	CN(C(=O)c1cn2c(-c3ccc(-c4nnc(N)o4)cc3)cnc2cn1)c1ccc(C#N)cc1 [Compound 248, 3-[4-(5-amino-1,3,4-oxadiazol-2-yl)phenyl]-N-(4-cyanophenyl)-N-methylimidazo[1,2-a]pyrazine-6-carboxamide]
366	CN(C(=O)c1cn2c(-c3ccc(-n4cccn4)cc3)cnc2cn1)c1ccc(F)c(F)c1 [Compound 144, N-(3,4-difluorophenyl)-N-methyl-3-[4-(1H-pyrazol-1-yl)phenyl]imidazo[1,2-a]pyrazine-6-carboxamide]
280	Cc1ccc(-c2cnc3cnc(C(=O)N(C)c4ccc(C#N)cc4)cn23)nc1 [Compound 19, N-(4-cyanophenyl)-N-methyl-3-(5-methylpyridin-2-yl)imidazo[1,2-a]pyrazine-6-carboxamide]
318	CC(C)Oc1ccc(-c2cnc3cnc(C(=O)N(C)c4ccc(C#N)cc4)cn23)cc1 [Compound 162, N-(4-cyanophenyl)-N-methyl-3-[4-(propan-2-yloxy)phenyl]imidazo[1,2-a]pyrazine-6-carboxamide]
3410	CN(C(=O)c1cn2c(-c3ccc(C(F)(F)F)c(F)c3)cnc2cn1)c1ccc(Cl)nc1 [Compound 332, N-(6-chloropyridin-3-yl)-3-[3-fluoro-4-(trifluoromethyl)phenyl]-N-methylimidazo[1,2-a]pyrazine-6-carboxamide]
349	CC(C)N(C(=O)c1cn2c(-c3ccc(C(F)(F)F)cc3)cnc2cn1)c1ccc(C#N)cc1 [Compound 92, N-(4-cyanophenyl)-N-(propan-2-yl)-3-[4-(trifluoromethyl)phenyl]imidazo[1,2-a]pyrazine-6-carboxamide]
2070	CN(C(=O)c1cn2c(-c3ccc(C(F)(F)F)cc3)cnc2cn1)c1ccc(C#N)cn1 [Compound 89, N-(5-cyanopyridin-2-yl)-N-methyl-3-[4-(trifluoromethyl)phenyl]imidazo[1,2-a]pyrazine-6-carboxamide]
2390	CN(C(=O)c1cn2c(-c3ccc(Cl)c(C#N)c3)cnc2cn1)c1ccc(C#N)cc1 [Compound 155, 3-(4-chloro-3-cyanophenyl)-N-(4-cyanophenyl)-N-methylimidazo[1,2-a]pyrazine-6-carboxamide]
1280	CN(C(=O)c1cn2c(-c3ccc4c(ccn4C)c3)cnc2cn1)c1ccc(Cl)nc1 [Compound 84, N-(6-chloropyridin-3-yl)-N-methyl-3-(1-methyl-1H-indol-5-yl)imidazo[1,2-a]pyrazine-6-carboxamide]
4910	CN(C)c1ccc(N(C)C(=O)c2cn3c(-c4ccc(C(F)(F)F)cc4)cnc3cn2)cn1 [Compound 394, N-[6-(dimethylamino)pyridin-3-yl]-N-methyl-3-[4-(trifluoromethyl)phenyl]imidazo[1,2-a]pyrazine-6-carboxamide]
414	CN(C(=O)c1ccc(Cl)cc1)c1cn2c(-c3ccc(C(F)(F)F)cc3)cnc2cn1 [Compound 259, 4-chloro-N-methyl-N-{3-[4-(trifluoromethyl)phenyl]imidazo[1,2-a]pyrazin-6-yl}benzamide]
2840	CN(C(=O)c1cn2c(-c3ccc(C(F)(F)F)cc3)cnc2cn1)c1cnc(Cl)s1 [Compound 496, N-(2-chloro-1,3-thiazol-5-yl)-N-methyl-3-[4 (trifluoromethyl)phenyl]imidazo[1,2-a]pyrazine-6-carboxamide]
2050	CN(C(=O)c1cn2c(-c3ccc(C(=O)NC4CC4)cc3)cnc2cn1)c1ccc(C#N)cc1 [Compound 158, N-(4-cyanophenyl)-3-[4-(cyclopropylcarbamoyl)phenyl]-N-methylimidazo[1,2-a]pyrazine-6-carboxamide]

From patent US20150291598A1 (NOVARTIS AG, priority 2012, published 2015)
